From patent US20050197350A1, “Novel quinoline, tetrahydroquinazoline, and pyrimidine derivatives and methods of treatment related to the use thereof” (TAISHO PHARMACEUTICAL CO., LTD., priority 2003, published 2005) come the findings set out here.

The structures appear in SMILES notation. Where two headings read alike, the source gives them in different places.

This test deals with MCH receptors. As to the kind of experiment: MCH receptor activity class (method not given).
Setting [1] is: class by percent of control at 10^-7 M or IC50.
[2] abbreviates: MCH receptor activity class 1-3 (percent of control at 10^-7 M or IC50).
[3] abbreviates: MCH receptor, class by percent of control at 10^-7 M or IC50.
Setting [4] is: activity class 1-3: percent of control at 10^-7 M or IC50.
[5] abbreviates: class by percent of control at 10^−7 M or IC50.
Where [6] appears, read: activity class per percent of control at 10^-7 M or IC50.
[7] abbreviates: class 1-3 by percent of control at 10^-7 M or IC50.

On to `CN(C)c1ccnc(N[C@H]2CC[C@@H](NC(=O)NC(c3ccccc3)c3ccccc3)CC2)n1` [compound 2209, N-(cis-4-{[4-(dimethylamino)pyrimidin-2-yl]amino}cyclohexyl)-N′-(diphenylmethyl)urea], for which the class under setting [1] is 1 (Class 1: The value of percent of control at 10^−7 M was less than 40% or the value of IC50 was less than 50 nM.). Same read-out and setting: under `Cc1ccc(CNC[C@H]2CC[C@@H](Nc3cc(N(C)C)c4ccccc4n3)CC2)cc1` [compound 1186] stands 3 (Class 3 The value of percent of control at 10^−7 M was more than 60% or the value of IC50 was more than 200 nM.); under `COc1ccc2[nH]cc(CN[C@H]3CC[C@@H](Nc4nc5c(c(N(C)C)n4)CCCC5)CC3)c2c1` [compound 1331], 1 (Class 1: The value of percent of control at 10^−7 M was less than 40% or the value of IC50 was less than 50 nM.). Consider `CN(C)c1nc(N[C@H]2CC[C@@H](CNC(=O)Nc3ccccc3C(F)(F)F)CC2)nc2c1CCCC2` [compound 2458], for which the class under setting [2] is recorded as 3 (Class 3 The value of percent of control at 10^−7 M was more than 60% or the value of IC50 was more than 200 nM.). As to `C#CCNC(=S)N[C@H]1CC[C@@H](Nc2nc3c(c(N(C)C)n2)CCCC3)CC1` [compound 2056], the class under setting [3] is 3 (Class 3 The value of percent of control at 10^−7 M was more than 60% or the value of IC50 was more than 200 nM.). In the case of `CN(C)c1cc(N[C@H]2CC[C@@H](NC(=O)COc3ccccc3[N+](=O)[O-])CC2)nc2ccccc12` [compound 113], the class under setting [3] is recorded as 3 (Class 3 The value of percent of control at 10^−7 M was more than 60% or the value of IC50 was more than 200 nM.). Consider `CN(C)c1ccnc(N[C@H]2CC[C@@H](NC(=O)OCc3ccccc3)CC2)n1` [compound 1631], for which the class under setting [4] is listed as 3 (Class 3 The value of percent of control at 10^−7 M was more than 60% or the value of IC50 was more than 200 nM.). In the case of `COc1cc(Br)cc(CNC[C@H]2CC[C@@H](Nc3nc4c(c(N(C)C)n3)CCCC4)CC2)c1O` [compound 1371], under setting [1], the class is 2 (Class 2: The value of percent of control at 10^−7 M was from 40% to 60% or the value of IC′50 was from 50 nM to 200 nM.). On to `Cc1c(NC(=O)N[C@H]2CC[C@@H](Nc3nc4c(c(N(C)C)n3)CCCC4)CC2)cccc1[N+](=O)[O-]` [compound 1681], for which the class under setting [4] is listed as 3 (Class 3 The value of percent of control at 10^−7 M was more than 60% or the value of IC50 was more than 200 nM.). Regarding `CN(C)c1nc(N[C@H]2CC[C@@H](NC(=O)NCc3ccc(Br)cc3)CC2)nc2c1CCCC2` [compound 1723], the class under setting [1] is given as 3 (Class 3 The value of percent of control at 10^−7 M was more than 60% or the value of IC50 was more than 200 nM.). As for `CSc1ncccc1C(=O)N[C@H]1CC[C@@H](Nc2cc(N(C)C)c3ccccc3n2)CC1` [compound 42], the class under setting [3] is 3 (Class 3 The value of percent of control at 10^−7 M was more than 60% or the value of IC50 was more than 200 nM.). In the case of `COc1ccc(CNC[C@H]2CC[C@@H](Nc3nc4c(c(N(C)C)n3)CCCC4)CC2)cc1` [compound 1383], the class under setting [1] is 3 (Class 3 The value of percent of control at 10^−7 M was more than 60% or the value of IC50 was more than 200 nM.). Take `CN(C)c1ccnc(N[C@H]2CC[C@@H](CNC(=O)c3ccc(Br)s3)CC2)n1` [compound 925]: the class under setting [1] is reported as 3 (Class 3 The value of percent of control at 10^−7 M was more than 60% or the value of IC50 was more than 200 nM.). In the case of `CN(C)c1nc(N[C@H]2CC[C@@H](NC(=O)Nc3ccc(-c4ccccc4)cc3)CC2)nc2c1CCCC2` [compound 1898], the class under setting [3] is recorded as 3 (Class 3 The value of percent of control at 10^−7 M was more than 60% or the value of IC50 was more than 200 nM.). Consider `Cc1cnc(N[C@H]2CC[C@@H](NC(=O)c3cccc(F)c3)CC2)nc1N(C)C` [compound 2897, N-(cis-4-{[4-(dimethylamino)-5-methylpyrimidin-2-yl]amino}cyclohexyl)-3-fluorobenzamide], for which the class under setting [5] is given as 1 (Class 1: The value of percent of control at 10^−7 M was less than 40% or the value of IC50 was less than 50 nM.).

For the compound `Cc1cccc(C(=O)N[C@H]2CC[C@@H](Nc3cc(C)c4ccccc4n3)CC2)c1` [Example 2543, 3-methyl-N-{cis-4-[(4-methylquinolin-2-yl)amino]cyclohexyl}benzamide], the class amounted to 1. Take `Cc1ccc(S(=O)(=O)n2ccc(C(=O)N[C@H]3CC[C@@H](Nc4nccc(N(C)C)n4)CC3)c2)cc1` [compound 901, N-(cis-4-{[4-(dimethylamino)pyrimidin-2-yl]amino}cyclohexyl)-1-[(4-methylphenyl)sulfonyl]-1H-pyrrole-3-carboxamide]: the class under setting [1] is reported as 2 (Class 2: The value of percent of control at 10^−7 M was from 40% to 60% or the value of IC′50 was from 50 nM to 200 nM.). In the case of `CN(C)c1cc(N[C@H]2CC[C@@H](NC(=S)Nc3ccc4c(c3)OCCO4)CC2)nc2ccccc12` [compound 2304], the class under setting [2] was 3 (Class 3 The value of percent of control at 10^−7 M was more than 60% or the value of IC50 was more than 200 nM.). Turning to `CN(C)c1nc(N[C@H]2CC[C@@H](CNC(=O)c3cccc4c3-c3ccccc3C4=O)CC2)nc2c1CCCC2` [compound 661], under setting [1], the class is recorded as 3 (Class 3 The value of percent of control at 10^−7 M was more than 60% or the value of IC50 was more than 200 nM.). As to `COc1ccc(C(=O)N[C@H]2CC[C@@H](Nc3nc4c(c(N(C)C)n3)CCCC4)CC2)cc1OCc1ccccc1` [compound 1026], the class under setting [6] is on record as 1 (Class 1: The value of percent of control at 10^−7 M was less than 40% or the value of IC50 was less than 50 nM.). As for `Cc1cc(N(C)C)nc(N[C@H]2CC[C@@H](NC(=O)c3ccc(Br)c(C)c3)CC2)n1` [compound 2969, 4-bromo-N-(cis-4-{[4-(dimethylamino)-6-methylpyrimidin-2-yl]amino}cyclohexyl)-3-methylbenzamide], the class under setting [5] was 1 (Class 1: The value of percent of control at 10^−7 M was less than 40% or the value of IC50 was less than 50 nM.). Still for that read-out and setting: under `Cc1cccc(N(C)CC(=O)N[C@H]2CC[C@@H](Nc3ncc(C)c(N(C)C)n3)CC2)c1` [compound 2942] stands 1 (Class 1: The value of percent of control at 10^−7 M was less than 40% or the value of IC50 was less than 50 nM.). Take `Cc1cc(N(C)C)nc(N[C@H]2CC[C@@H](C(=O)NCc3ccc(F)cc3F)CC2)n1` [Example 2582, cis-N-(2,4-difluorobenzyl)-4-{[4-(dimethylamino)-6-methylpyrimidin-2-yl]amino}cyclohexanecarboxamide]: the class was 1. With `CCc1cccc(CC)c1NC(=S)N[C@H]1CC[C@@H](Nc2nccc(N(C)C)n2)CC1` [compound 2322], the class under setting [2] was 3 (Class 3 The value of percent of control at 10^−7 M was more than 60% or the value of IC50 was more than 200 nM.). In the case of `CN(C)c1nc(N[C@H]2CC[C@@H](NC(=O)Nc3ccc(Cl)cc3)CC2)nc2c1CCCC2` [compound 1815], the class under setting [1] was 3 (Class 3 The value of percent of control at 10^−7 M was more than 60% or the value of IC50 was more than 200 nM.). As for `Cc1onc(-c2ccccc2)c1NC(=S)N[C@H]1CC[C@@H](Nc2cc(N(C)C)c3ccccc3n2)CC1` [compound 2309], the class under setting [2] is reported as 3 (Class 3 The value of percent of control at 10^−7 M was more than 60% or the value of IC50 was more than 200 nM.).

As for `CN(C)c1nc(N[C@H]2CC[C@@H](NC(=O)COc3cccc(Cl)c3)CC2)nc2c1CCCC2` [compound 569], the class under setting [7] is reported as 1 (Class 1: The value of percent of control at 10^−7 M was less than 40% or the value of IC50 was less than 50 nM.). On the same count and under the same terms, under `CN(C)c1nc(N[C@H]2CC[C@@H](NC(=O)CSc3ccccc3)CC2)nc2c1CCCC2` [compound 499] stands 3 (Class 3 The value of percent of control at 10^−7 M was more than 60% or the value of IC50 was more than 200 nM.). Turning to `C[C@@H](NC(=O)c1ccccc1C(=O)N[C@H]1CC[C@@H](Nc2nc3c(c(N(C)C)n2)CCCC3)CC1)c1cccc2ccccc12` [compound 1013], the class under setting [6] is on record as 3 (Class 3 The value of percent of control at 10^−7 M was more than 60% or the value of IC50 was more than 200 nM.). On to `CC(CCN[C@H]1CC[C@@H](Nc2nccc(N(C)C)n2)CC1)c1ccccc1` (relative stereo) [compound 1226], for which the class under setting [1] is 3 (Class 3 The value of percent of control at 10^−7 M was more than 60% or the value of IC50 was more than 200 nM.). The same measure, in the same setting: under `COc1cc(Br)cc(CN[C@H]2CC[C@@H](Nc3nc4c(c(N(C)C)n3)CCCC4)CC2)c1O` [compound 1333] stands 3 (Class 3 The value of percent of control at 10^−7 M was more than 60% or the value of IC50 was more than 200 nM.); under `CN(C)c1nc(N[C@H]2CC[C@@H](NC(=O)Nc3cc(F)ccc3F)CC2)nc2c1CCCC2` [compound 1848], 3 (Class 3 The value of percent of control at 10^−7 M was more than 60% or the value of IC50 was more than 200 nM.). As for `Cc1cc(N(C)C)nc(N[C@H]2CC[C@@H](NC(=O)C(C)(C)c3ccc(Cl)cc3)CC2)n1` [compound 2949, 2-(4-chlorophenyl)-N-(cis-4-{[4-(dimethylamino)-6-methylpyrimidin-2-yl]amino}cyclohexyl)-2-methylpropanamide], the class under setting [5] is reported as 1 (Class 1: The value of percent of control at 10^−7 M was less than 40% or the value of IC50 was less than 50 nM.). Take `CN(C)c1cc(N[C@H]2CC[C@@H](CNC(=O)OCCOCc3ccccc3)CC2)nc2ccccc12` [compound 1559]: the class under setting [4] is reported as 3 (Class 3 The value of percent of control at 10^−7 M was more than 60% or the value of IC50 was more than 200 nM.).

With `CCc1cccc(C(=O)N[C@H]2CC[C@@H](Nc3nc(C)cc(N(C)C)n3)CC2)c1` [compound 2970, N-(cis-4-{[4-(dimethylamino)-6-methylpyrimidin-2-yl]amino}cyclohexyl)-3-ethylbenzamide], the class under setting [5] is reported as 3 (Class 3 The value of percent of control at 10^−7 M was more than 60% or the value of IC50 was more than 200 nM.). The same measure, in the same setting: under `Cc1cnc(N[C@H]2CC[C@@H](NC(=O)CN(C)c3ccc(F)cc3)CC2)nc1N(C)C` [compound 2944] stands 1 (Class 1: The value of percent of control at 10^−7 M was less than 40% or the value of IC50 was less than 50 nM.).
